Four compounds from PubChem BioAssay AID2060904 (Molecular Pharmacology Branch, DTP, NCI, 2025) can be followed below.
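Note: spheroids exposed to compound for seven days before viability readout.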

The first test relates to 349418-098-R-PDC complex spheroid viability. Briefly: Anticancer human tumor 349418-098-R-PDC patient-derived lung adenocarcinoma cell line growth inhibition [RAS]. As to conditions: second compound 0.316 µM; first compound 0.316 µM; hits give low values. The method, boiled down: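 Agents were tested in combination matrices in half-log decrements from a top concentration at or near clinical Cmax (10 microM if undetermined). Targets were multi-cell spheroids of tumour lines plus HUVEC and MSC stromal cells.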
For `CCN1CCN(Cc2ccc(Nc3ncc(F)c(-c4cc(F)c5nc(C)n(C(C)C)c5c4)n3)nc2)CC1` + C#Cc1c(F)ccc2cc(O)cc(-c3ncc4c(N5CC6CCC(C5)N6)nc(OCC56CCCN5CC(F)C6)nc4c3F)c12, the viability, T/C was 24.4%.

Take `C[C@@H](NC(=O)c1ncnc(N)c1Cl)c1ncc(C(=O)Nc2cc(C(F)(F)F)c(Cl)cn2)s1` + C#Cc1c(F)ccc2cc(O)cc(-c3ncc4c(N5CC6CCC(C5)N6)nc(OCC56CCCN5CC(F)C6)nc4c3F)c12: the viability, T/C was 76.4%.

Still in this test, the particulars now being: second compound 0.316 µM; first compound 1 µM; hits give low values.
For `CC1(O)CCCC1n1c(=O)c(C(F)F)cc2cnc(NC3CCN(S(C)(=O)=O)CC3)nc21` (stereo unspecified) + C#Cc1c(F)ccc2cc(O)cc(-c3ncc4c(N5CC6CCC(C5)N6)nc(OCC56CCCN5CC(F)C6)nc4c3F)c12, the viability, T/C was 25.8%.

In the case of `CCC(CC)c1cc(NC2CCC(N)C2)n2nccc2n1` (stereo unspecified) + C#Cc1c(F)ccc2cc(O)cc(-c3ncc4c(N5CC6CCC(C5)N6)nc(OCC56CCCN5CC(F)C6)nc4c3F)c12, the viability, T/C is 44.8%.

For `CCN1CCN(Cc2ccc(Nc3ncc(F)c(-c4cc(F)c5nc(C)n(C(C)C)c5c4)n3)nc2)CC1` + C#Cc1c(F)ccc2cc(O)cc(-c3ncc4c(N5CC6CCC(C5)N6)nc(OCC56CCCN5CC(F)C6)nc4c3F)c12, the viability, T/C is 16.2%.

Consider `C[C@@H](NC(=O)c1ncnc(N)c1Cl)c1ncc(C(=O)Nc2cc(C(F)(F)F)c(Cl)cn2)s1` + C#Cc1c(F)ccc2cc(O)cc(-c3ncc4c(N5CC6CCC(C5)N6)nc(OCC56CCCN5CC(F)C6)nc4c3F)c12, for which the viability, T/C was 62.4%.

The same test, now with this note: second compound 0.316 µM; first compound 3.16 µM; hits give low values.
With `CC1(O)CCCC1n1c(=O)c(C(F)F)cc2cnc(NC3CCN(S(C)(=O)=O)CC3)nc21` (stereo unspecified) + C#Cc1c(F)ccc2cc(O)cc(-c3ncc4c(N5CC6CCC(C5)N6)nc(OCC56CCCN5CC(F)C6)nc4c3F)c12, the viability, T/C was 20.1%.

Take `CCC(CC)c1cc(NC2CCC(N)C2)n2nccc2n1` (stereo unspecified) + C#Cc1c(F)ccc2cc(O)cc(-c3ncc4c(N5CC6CCC(C5)N6)nc(OCC56CCCN5CC(F)C6)nc4c3F)c12: the viability, T/C was 4.03%.

Consider `C[C@@H](NC(=O)c1ncnc(N)c1Cl)c1ncc(C(=O)Nc2cc(C(F)(F)F)c(Cl)cn2)s1` + C#Cc1c(F)ccc2cc(O)cc(-c3ncc4c(N5CC6CCC(C5)N6)nc(OCC56CCCN5CC(F)C6)nc4c3F)c12, for which the viability, T/C was 52%.

The test is the same for the next values; noted with them: second compound 0.316 µM; first compound 10 µM; hits give low values.
As to `CC1(O)CCCC1n1c(=O)c(C(F)F)cc2cnc(NC3CCN(S(C)(=O)=O)CC3)nc21` (stereo unspecified) + C#Cc1c(F)ccc2cc(O)cc(-c3ncc4c(N5CC6CCC(C5)N6)nc(OCC56CCCN5CC(F)C6)nc4c3F)c12, the viability, T/C is 3.12%.

As for `CCC(CC)c1cc(NC2CCC(N)C2)n2nccc2n1` (stereo unspecified) + C#Cc1c(F)ccc2cc(O)cc(-c3ncc4c(N5CC6CCC(C5)N6)nc(OCC56CCCN5CC(F)C6)nc4c3F)c12, the viability, T/C was 2.72%.

Regarding `C[C@@H](NC(=O)c1ncnc(N)c1Cl)c1ncc(C(=O)Nc2cc(C(F)(F)F)c(Cl)cn2)s1` + C#Cc1c(F)ccc2cc(O)cc(-c3ncc4c(N5CC6CCC(C5)N6)nc(OCC56CCCN5CC(F)C6)nc4c3F)c12, the viability, T/C is 32.8%.

Staying with this test, now noted: second compound 1 µM; first compound 0.00316 µM; hits give low values.
With `CCN1CCN(Cc2ccc(Nc3ncc(F)c(-c4cc(F)c5nc(C)n(C(C)C)c5c4)n3)nc2)CC1` + C#Cc1c(F)ccc2cc(O)cc(-c3ncc4c(N5CC6CCC(C5)N6)nc(OCC56CCCN5CC(F)C6)nc4c3F)c12, the viability, T/C is 79.4%.

Staying with this test, now noted: second compound 1 µM; first compound 0.01 µM; hits give low values.
Turning to `CCN1CCN(Cc2ccc(Nc3ncc(F)c(-c4cc(F)c5nc(C)n(C(C)C)c5c4)n3)nc2)CC1` + C#Cc1c(F)ccc2cc(O)cc(-c3ncc4c(N5CC6CCC(C5)N6)nc(OCC56CCCN5CC(F)C6)nc4c3F)c12, the viability, T/C is 49.6%.

The same test, now with this note: second compound 1 µM; first compound 0.0316 µM; hits give low values.
Consider `CC1(O)CCCC1n1c(=O)c(C(F)F)cc2cnc(NC3CCN(S(C)(=O)=O)CC3)nc21` (stereo unspecified) + C#Cc1c(F)ccc2cc(O)cc(-c3ncc4c(N5CC6CCC(C5)N6)nc(OCC56CCCN5CC(F)C6)nc4c3F)c12, for which the viability, T/C was 60.5%.

For the compound `CCC(CC)c1cc(NC2CCC(N)C2)n2nccc2n1` (stereo unspecified) + C#Cc1c(F)ccc2cc(O)cc(-c3ncc4c(N5CC6CCC(C5)N6)nc(OCC56CCCN5CC(F)C6)nc4c3F)c12, the viability, T/C was 75.8%.

On to `CCN1CCN(Cc2ccc(Nc3ncc(F)c(-c4cc(F)c5nc(C)n(C(C)C)c5c4)n3)nc2)CC1` + C#Cc1c(F)ccc2cc(O)cc(-c3ncc4c(N5CC6CCC(C5)N6)nc(OCC56CCCN5CC(F)C6)nc4c3F)c12, for which the viability, T/C is 37.8%.

For `C[C@@H](NC(=O)c1ncnc(N)c1Cl)c1ncc(C(=O)Nc2cc(C(F)(F)F)c(Cl)cn2)s1` + C#Cc1c(F)ccc2cc(O)cc(-c3ncc4c(N5CC6CCC(C5)N6)nc(OCC56CCCN5CC(F)C6)nc4c3F)c12, the viability, T/C is 90.7%.

Staying with this test, now noted: second compound 1 µM; first compound 0.1 µM; hits give low values.
For `CC1(O)CCCC1n1c(=O)c(C(F)F)cc2cnc(NC3CCN(S(C)(=O)=O)CC3)nc21` (stereo unspecified) + C#Cc1c(F)ccc2cc(O)cc(-c3ncc4c(N5CC6CCC(C5)N6)nc(OCC56CCCN5CC(F)C6)nc4c3F)c12, the viability, T/C is 35.9%.

With `CCC(CC)c1cc(NC2CCC(N)C2)n2nccc2n1` (stereo unspecified) + C#Cc1c(F)ccc2cc(O)cc(-c3ncc4c(N5CC6CCC(C5)N6)nc(OCC56CCCN5CC(F)C6)nc4c3F)c12, the viability, T/C is 85.6%.

For the compound `CCN1CCN(Cc2ccc(Nc3ncc(F)c(-c4cc(F)c5nc(C)n(C(C)C)c5c4)n3)nc2)CC1` + C#Cc1c(F)ccc2cc(O)cc(-c3ncc4c(N5CC6CCC(C5)N6)nc(OCC56CCCN5CC(F)C6)nc4c3F)c12, the viability, T/C was 33.5%.
